This passage reports binding and Kd results from PMC12029786 (2025).

Test [1] concerns Karashi A51G (RNA, aptamer) GGGCUGAAUGAAGAGCAGUAGCGAGUAGUUCACAAGCUUCGGCUUGUAGGGAGUAAAUGUGCAAAUCCGUAACUAGCCU
The experiment in a line: fluorescence enhancement. The following applies: 10 mM Mg2+; 40 mM Tris-Cl pH 7.5, 37 °C; 0.1 μM RNA, 0.1 μM DMHBI.

In test [2] the test system is Jigarashi RNA (RNA, aptamer) GGUUUCCCCGAAGAGCAGUAGCGAGUAGGGGCCCAGCUUCGGCUGGGAGGAAGUAAAUGUGCAAAUCCGUAACUAAACU
The experiment in a line: fluorescence enhancement. The following applies: 10 mM Mg2+; 40 mM Tris-Cl pH 7.5, 37 °C; 0.1 μM RNA, 0.1 μM DMHBI.

The test system of test [3] is fr-1 RNA + fr-2 RNA (RNA, aptamer) GGUUUCCCCGAAGAGCAGUAGCGAGUAGGGGCCCAGCU/GGCUGGGAGGAAGUAAAUGUGCAAAUCCGUAACUAAACU
The experiment in a line: fluorescence enhancement. The conditions noted are these: 10 mM Mg2+; 40 mM Tris-Cl pH 7.5, 37 °C; 0.1 μM each RNA, 0.1 μM DMHBI.

Test [4] has as its system Karashi (17-3min RNA) (RNA, aptamer) GGGCUGAAUGAAGAGCAGUAGCGAGUAGUUCACAAGCUUCGGCUUGUAGGAAGUAAAUGUGCAAAUCCGUAACUAGCCU
The experiment in a line: fluorescence enhancement. The following applies: 10 mM Mg2+; 40 mM Tris-Cl pH 7.5, 37 °C; 0.1 μM RNA, 0.1 μM DMHBI.

In test [5] the test system is 17-3minCP (RNA, aptamer) GGGCUUGUAGGAAGUAAAUGUGCAAAUCCGUAACUAGCUUCGGCUGAAUGAAGAGCAGUAGCGAGUAGUUCACAAGCCU
Kind of test: fluorescence enhancement. The following applies: 10 mM Mg2+; 40 mM Tris-Cl pH 7.5, 37 °C; 0.1 μM RNA, 0.1 μM DMHBI.

In test [6] the test system is m1 mutant of 17-3min RNA (RNA, aptamer) GGGCUGUUUGAAGAGCAGUAGCGAGUAGAACACAAGCUUCGGCUUGUAGGAAGUAAAUGUGCAAAUCCGUAACUAGCCU
Kind of test: fluorescence enhancement. The conditions noted are these: 10 mM Mg2+; 40 mM Tris-Cl pH 7.5, 37 °C; 0.1 μM RNA, 0.1 μM DMHBI.

Test [7] deals with m3 mutant of Karashi RNA (RNA, aptamer) GGGCUGCCUGAAGAGCAGUAGCGAGUAGGGCACAAGCUUCGGCUUGUAGGAAGUAAAUGUGCAAAUCCGUAACUAGCCU
Kind of test: fluorescence enhancement. The conditions noted are these: 10 mM Mg2+; 40 mM Tris-Cl pH 7.5, 37 °C; 0.1 μM RNA, 0.1 μM DMHBI.

For test [8], the system named is Karashi G69A (RNA, aptamer) GGGCUGAAUGAAGAGCAGUAGCGAGUAGUUCACAAGCUUCGGCUUGUAGGAAGUAAAUGUGCAAAUCCAUAACUAGCCU
The experiment in a line: fluorescence enhancement. The following applies: 10 mM Mg2+; 40 mM Tris-Cl pH 7.5, 37 °C; 0.1 μM RNA, 0.1 μM DMHBI.

For test [9], the system named is 17-3 RNA (RNA, aptamer) GGGAGACGCAACUGAAUGAAGAGCAGUAGCGAGUAGUUCACAAGAGCUGCUUCGGCAGGAUCUUGUAGGAAGUAAAUGUGCAAAUCCGUAACUAGUCGCGUCAC
The experiment in a line: fluorescence enhancement titration. The conditions noted are these: 50 mM Mg2+; 40 mM Tris-Cl pH 7.5, 37 °C; 5 nM DMHBI titrated with RNA; Hill fit.

As for `COc1cc(/C=C2\N=C(C)N(C)C2=O)cc(OC)c1O`, the binding entry in test [1], in test [2], in test [3], in test [4], in test [5] and in test [6] was “yes” each time. Further, the binding result in test [7] and in [8] was “yes” in each case. The Kd in test [9] is 43 nM.
